{
  "source": "paper PMC12544700",
  "about": "“Identification of a Small Secretoneurin Derivative That Inhibits CaMKIIδ Activity” (Journal of Cellular and Molecular Medicine, 2025)",
  "key": {"human His‐CaMKIIδ‐T287D": {"target": "T1, human His‐CaMKIIδ‐T287D (Homo sapiens, UniProt Q13557, T287D)", "T1 construct": "Recombinant human His‐CaMKIIδ‐T287D and rat His‐CaMKIIδ‐T287D full‐length proteins; His; purchased Genscript Corp (custom made)", "T1 sequence (Q13557 whole entry T287D, the tested form may be a part)": "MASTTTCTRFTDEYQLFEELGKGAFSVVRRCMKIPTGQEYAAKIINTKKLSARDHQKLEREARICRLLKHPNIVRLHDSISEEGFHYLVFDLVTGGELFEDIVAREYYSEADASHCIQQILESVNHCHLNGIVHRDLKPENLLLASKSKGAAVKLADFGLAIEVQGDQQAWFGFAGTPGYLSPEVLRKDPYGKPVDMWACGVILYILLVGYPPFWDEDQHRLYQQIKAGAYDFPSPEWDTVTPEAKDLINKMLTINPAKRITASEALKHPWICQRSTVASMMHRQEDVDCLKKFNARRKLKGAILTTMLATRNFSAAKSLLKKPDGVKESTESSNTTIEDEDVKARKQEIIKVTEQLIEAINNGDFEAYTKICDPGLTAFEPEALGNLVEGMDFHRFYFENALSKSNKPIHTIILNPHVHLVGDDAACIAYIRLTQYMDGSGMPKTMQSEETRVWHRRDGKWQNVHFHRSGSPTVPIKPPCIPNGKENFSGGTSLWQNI", "assay": "ELISA-based binding to human His‐CaMKIIδ‐T287D", "details": "biotin‐ahx‐SN‐db‐short; values relative to biotin‐ahx‐Scram; Figure S2B, n = 6", "protocol": "(§1) A 96‐well microplate was coated with 1 μg/well of rat or human recombinant His‐CaMKIIδ‐T287D or CaMKIIδ fragments (custom made by Genscript) in 1× PBS overnight at 4°C with gentle tilting. Wells were washed with 1× PBS‐t (0.1% Tween‐20) and blocked with 0.5% gelatin (G‐1890 Gelatin type A, Sigma Merck, Darmstadt, Germany) or BSA (805095 30% BSA (Rinderalbumin 30%), Norsk Labex, Høvik, Norway) for 1 h at room temperature (RT), then incubated with 5 μL of biotinylated peptide (1 mM) for 2 h at 37°C with gentle tilting. The wells were then washed five times with 1× PBS‐t. To detect binding, the wells were incubated with a monoclonal anti‐biotin‐HRP conjugated antibody (1:5000 dilution, A‐0185, Sigma) for 30 min at RT. The washing steps were repeated, and the plate was incubated with the Ultra TMB solution (1‐step Ultra TMB‐ELISA Substrate Solution 34028, Thermo Fischer Scientific, Waltham, MA, USA) for 30 min at RT with gentle tilting. The reaction was stopped by adding 2 N HCl (100 μL), and the signal was measured at 450 nm by a plate reader (Hidex Sense Microplate Reader, Åbo, Finland). For the competition assay, 20 μL (1 mM) of T‐site binding peptides AKAP18δ‐N1, CN21 or CN27 (without any biotin tags) were incubated in the same well with 5 μL (1 mM) of SN biotinylated peptides. […]"}, "[1]": {"target": "T2, Recombinant rat CaMKIIδ‐T287D (Rattus norvegicus, UniProt P15791, T287D)", "T2 construct": "Recombinant human His‐CaMKIIδ‐T287D and rat His‐CaMKIIδ‐T287D full‐length proteins; His; purchased Genscript Corp (custom made)", "assay": "ELISA-based competition assay with T‐site binding peptides", "details": "5 μL 1 mM biotin‐SN‐db‐short with 20 μL 1 mM untagged competitor; Figure 2C, n = 4–12", "protocol": "The wells were then washed five times with 1× PBS‐t. […] For the competition assay, 20 μL (1 mM) of T‐site binding peptides AKAP18δ‐N1, CN21 or CN27 (without any biotin tags) were incubated in the same well with 5 μL (1 mM) of SN biotinylated peptides."}, "[2]": {"test_system": "CaMKIIδ fragments (aa 1–74, 1–165, 1–282, 1–311, 69–282)", "assay": "ELISA-based binding to CaMKIIδ fragments", "design": "species or system rat", "details": "biotinylated peptide; fragments coated in wells; relative to Scram; Figure 2B, n = 9–13", "protocol": "Recombinant human His‐CaMKIIδ‐T287D and rat His‐CaMKIIδ‐T287D full‐length proteins (T287D mutated to mimic active kinases) and rat His‐CaMKIIδ (1–74), rat His‐CaMKIIδ (1–165), rat His‐CaMKIIδ (1–282), rat His‐CaMKIIδ‐T287D (1–311), and rat His‐CaMKIIδ (69–282) recombinant fragments were generated by Genscript Corp.\nas §1, with “The washing steps were repeated, and the plate was incubated with the Ultra TMB solution (1‐step Ultra TMB‐ELISA Substrate Solution 34028, Thermo Fischer Scientific, Waltham, MA, USA) for 30 min at RT with gentle tilting.” left out, “Finland).” for “Finland). For the competition assay, 20 μL (1 mM) of T‐site binding peptides AKAP18δ‐N1, CN21 or CN27 (without any biotin tags) were incubated in the same well with 5 μL (1 mM) of SN biotinylated peptides.”"}, "recombinant CaM": {"target": "T3, recombinant CaM (Homo sapiens, UniProt P0DP23)", "T3 construct": "purchased Sigma Merck C4874", "assay": "Calmodulin pull-down with peptides synthesised on cellulose membrane", "type": "binding", "details": "peptide on cellulose membrane; 1 μg recombinant CaM, 1 mM CaCl2, overnight 4°C; immunoblot; Figure 3B", "protocol": "To test for calmodulin (CaM) binding, recombinant CaM was pulled down after incubation with SN‐db‐short or a peptide representing the CaM binding site in CaMKII ([…], positive control). SN‐db‐short and the CaM‐binding peptide were synthesised in triplicates onto a cellulose membrane by a Multipep automated peptide synthesiser (CEM Corporation, Matthews, NC, USA). The specific spots of the membrane corresponding to SN‐db‐short or the positive control peptide were cut and placed into separate tubes. The membrane pieces were first rehydrated in 100% methanol and subsequently incubated with 1 μg of recombinant CaM (C4874, Sigma Merck) in CaMKII binding buffer supplemented with CaCl2 (50 mM Hepes, 150 mM NaCl, 15 mM MgCl2, 1 mM CaCl2, 0.1% Triton X‐100, 1% BSA) overnight at 4°C with rotation. […]\nLysates and immunoprecipitates were separated on 12% or 4%–15% Criterion TGX precast gels (5671044 and 5671084, Biorad, Hercules, CA, USA), blotted onto PVDF membranes (1704157 by Biorad or 03010040001 by Sigma Merck) and reversibly stained with Revert 700 Total Protein Stain (Li‐COR Biosciences, Lincoln, NE, USA). […] Blots were developed using ECL (RPN2236, GE Healthcare, Chicago, IL, USA) after four washing steps of 10 min in TBS‐t and the chemiluminescence signals were detected by Azure Biosystems 600 (Dublin, CA, USA). […] ImageJ [13] was used to quantify the blots."}},
  "note": "Peptide text beside a SMILES is read from it. * marks the point of attachment. Biotin = O=C1N[C@H]2[C@H](CS[C@H]2CCCCC(=O)*)N1; Ahx = NCCCCCC(=O)O",
  "data": [
    {"smiles": "CC(C)C[C@H](NC(=O)[C@H](CCC(=O)O)NC(=O)[C@H](CCC(N)=O)NC(=O)[C@H](Cc1ccccc1)NC(=O)[C@H](Cc1ccccc1)NC(=O)[C@H](CO)NC(=O)[C@H](CCC(=O)O)NC(=O)[C@H](Cc1ccccc1)NC(=O)[C@@H](NC(=O)[C@H](C)NC(=O)[C@H](CC(C)C)NC(=O)[C@H](CO)NC(=O)[C@H](CCC(N)=O)NC(=O)[C@@H]1CCCN1C(=O)[C@@H](NC(=O)[C@H](Cc1ccc(O)cc1)NC(=O)[C@H](CCC(N)=O)NC(=O)[C@H](CCC(=O)O)NC(=O)CCCCCNC(=O)CCCC[C@@H]1SC[C@@H]2NC(=O)N[C@@H]21)[C@@H](C)O)[C@@H](C)O)C(=O)NCC(=O)N[C@@H](CCCCN)C(=O)O", "note": "[SN‐db‐short] ({Biotin-Ahx}-EQYTPQSLATFESFFQELGK-OH; N-terminus and C-terminus assumed)", "values": [
      {"measurement": "Binding to recombinant human CaMKIIδ‐T287D (ELISA)", "setting": "human His‐CaMKIIδ‐T287D", "result": "increased binding"},
      {"measurement": "SN‐db‐short binding to CaMKIIδ‐T287D in presence of competitor peptides AKAP18δ‐N1, CN21, CN27", "setting": "[1]", "result": "only marginally outcompeted"},
      {"measurement": "Binding to CaMKIIδ fragments", "setting": "[2]", "result": "binding was detected for all fragments"},
      {"measurement": "CaM binding (pull-down)", "setting": "recombinant CaM", "result": "no CaM was detected"}
    ]}
  ]
}
